Experimental findings from ChEMBL document CHEMBL3632556, “Synthesis and biological evaluation of new C-10 substituted dithranol pleiotropic hybrids” (Bioorg Med Chem, 2015) are described below.

In one data set the test system is Glycine max. The data set is described as follows: Inhibition of soybean LOX assessed as reduction in conversion of sodium linoleate to 13-hydroperoxylinoleic acid at 100 uM by UV analysis.
In data set [1] the test system is Rattus norvegicus. The data set is described as follows: Acute toxicity in Fisher 344 rat up to 0.1 mmol/kg, ip. Type of data set: organism-based. To be noted: in vivo.
Data set [2] is described as follows: Antioxidant activity assessed as increase of DPPH free radical scavenging activity by measuring reducing activity at 100 uM after 60 mins by spectrophotometry. Format: physicochemical. Particulars: 1 h. (In general: DPPH is a stable violet radical that fades when it is reduced.)
Data set [3] in a line: Antioxidant activity assessed as DPPH free radical scavenging activity by measuring reducing activity at 100 uM after 20 mins by spectrophotometry. The arrangement: scale not given: the % may be the effect or the level left. Type of data set: physicochemical.
Data set [4] is described as follows: Antioxidant activity assessed as inhibition of AAPH-induced linoleic acid lipid peroxidation at 100 uM. Type of data set: physicochemical.
A short description of data set [5]: Cytotoxicity against human HaCaT cells assessed as cell survival at 1 uM after 48 hrs by MTT assay (reference value: 97.50 +/- 0.71%). Format: cell-based. To be noted: read-out: Survival. A general note: Tetrazolium dyes change colour on reduction, which living cells bring about.
Data set [6] can be described thus: Cytotoxicity against human HaCaT cells assessed as cell survival at 0.01 uM after 48 hrs by MTT assay (reference value: 100%). Format: cell-based. Particulars: read-out: Survival; call rule not given here.
A short description of data set [7]: Cytotoxicity against human HaCaT cells assessed as cell survival at 0.1 uM after 48 hrs by MTT assay (reference value: 96.75 +/- 1.77%). Type of data set: cell-based. Particulars: read-out: Survival.
Data set [8] can be described thus: Cytotoxicity against human HaCaT cells assessed as cell survival at 10 uM after 48 hrs by MTT assay (reference value: 95.75 +/- 2.47%). Type of data set: cell-based. Particulars: read-out: Survival.
Another data set deals with HaCaT. As to the kind of experiment: Antiproliferative activity against human HaCaT cells after 24 hrs by MTT assay. Format: functional, cell-based.
Data set [9] in a line: Cytotoxicity against human HaCaT cells assessed as cell survival at 100 uM after 48 hrs by MTT assay (reference value: 88.07 +/- 9.81%). Type of data set: cell-based. Particulars: read-out: Survival.
Data set [10] in a line: Inhibition of soybean LOX assessed as reduction in conversion of sodium linoleate to 13-hydroperoxylinoleic acid by UV analysis. Set-up: species or system Glycine max.
Data set [11] relates to Rattus norvegicus. The data set is described as follows: Anti-inflammatory activity in Fisher 344 rat assessed as inhibition of carrageenan-induced paw edema at 0.01 mmol/kg, ip after 3.5 hrs. Type of data set: functional. To be noted: Fisher 344, ip. A general note: Carrageenan injected into the paw causes an acute inflammation.
Data set [12] in a line: Lipophilicity, RM of the compound by RP-TLC method. Type of data set: physicochemical.

Structures are written as SMILES.

For orientation: inhibition means the percentage by which the read-out fell short of the control. As to `NCCCCN(CCCN)C(=O)CC1c2cccc(O)c2C(=O)c2c(O)cccc21.O=C(O)C(F)(F)F.O=C(O)C(F)(F)F`, in the data set on Glycine max, the inhibition is 26%. Further, the Activity result is recorded as “Non-toxic” in the data set on Rattus norvegicus [1], “Not Active” in [2] and 48% in [3]. Also, the “inhibition (INH)” value in data set [4] is given as 74%.
By IC50 is commonly meant the concentration needed to halve the response being measured. As to `O=C(CC1c2cccc(O)c2C(=O)c2c(O)cccc21)NCCc1ccc(O)c(O)c1`, the viability at 48 h, 1 µM in data set [5] worked out at 112%. For the same compound, the inhibition in the data set with Glycine max is 42%. Moreover, the Activity entry in the data set on Rattus norvegicus [1] is given as “Non-toxic”; in [2] it was “Not Active”; in [3], 32%. In addition, the viability at 48 h, 0.01 µM in [6] came out at 91.1%. Moreover, in data set [7], the viability at 48 h, 0.1 µM was determined as 114%. Also, in [8], the viability at 48 h, 10 µM is 128%. This compound returned an IC50 with HaCaT of 100 µM. Besides, in [9], the viability at 48 h, 100 µM was determined as 2.98%. Moreover, the “inhibition (INH)” value in data set [4] is recorded as 5%.
Consider `CC(C)(C)OC(=O)CC1c2cccc(O)c2C(=O)c2c(O)cccc21`, for which the results for the Activity result (with Rattus norvegicus [1]; in [2]; in data set [3]) were “Non-toxic”, “Active” and 9%, respectively. Further, the IC50 result in data set [10] is reported as “Not Active”. Besides, the “inhibition (INH)” value in data set [4] worked out at 79%.
As for `CC(C)(C)OC(=O)NCCCCNC(=O)CC1c2cccc(O)c2C(=O)c2c(O)cccc21`, the inhibition with Glycine max is 46%. In addition, the Activity entry with Rattus norvegicus [1] is “Non-toxic”; in [2], “Not Active”; in data set [3], 33%. For the same compound, the “inhibition (INH)” value in [4] was 62%.
In general, inhibition in vivo refers to how much of the control response was suppressed. Consider `NCCc1ccc(O)c(O)c1` [DOPAMINE], for which, in the data set with Rattus norvegicus [11], the inhibition in vivo at 10 µmol/kg stood at 13%. For the same compound, in data set [10] (read-out: IC50), the IC50 was 100 µM. For the same compound, the Activity entry in data set [2] is given as “Not Active”; in data set [3] it was 86%. Also, in data set [4], the “inhibition (INH)” value turned out to be 43%.
Regarding `CC(C)(C)OC(=O)NCCCN(CCCCN(CCCNC(=O)CC1c2cccc(O)c2C(=O)c2c(O)cccc21)C(=O)OC(C)(C)C)C(=O)OC(C)(C)C`, the Activity result in the data set on Rattus norvegicus [1] is on record as “Non-toxic”; in [2] it was “Not Active”; in [3], 29%. In addition, in [10], the IC50 entry is on record as “Not Active”. For the same compound, the “inhibition (INH)” value in data set [4] is recorded as 93%.
Consider `COc1ccc(CNC(=O)CC2c3cccc(O)c3C(=O)c3c(O)cccc32)cc1OC`, for which, in [5], the viability at 48 h, 1 µM turned out to be 12.3%. Besides, the Activity entry in the data set on Rattus norvegicus [1] was “Non-toxic”; in data set [2] it was “Not Active”; in data set [3], 61%. Moreover, the IC50 in [10] (read-out: IC50) was 61.5 µM. Further, the viability at 48 h, 0.01 µM in [6] came to 18.5%. Also, in [7], the viability at 48 h, 0.1 µM came to 13.3%. Besides, the viability at 48 h, 10 µM in [8] worked out at 3%. In addition, the viability at 48 h, 100 µM in [9] stood at 0%. Also, the “inhibition (INH)” value in data set [4] was found to be 65%.
As to `COc1ccc(CNC(=O)CC2c3cccc(O)c3C(=O)c3c(O)cccc32)c(OC)c1`, the viability at 48 h, 1 µM in data set [5] is 135%. The Activity result was “Non-toxic” in the data set with Rattus norvegicus [1], “Not Active” in data set [2] and 87% in data set [3]. Further, the IC50 in data set [10] (read-out: IC50) is 50 µM; in the data set with HaCaT, 10 µM. Also, the viability at 48 h, 0.01 µM in data set [6] worked out at 92.3%. For the same compound, in data set [7], the viability at 48 h, 0.1 µM was found to be 134%. Also, the viability at 48 h, 10 µM in [8] came out at 8.42%. Besides, in data set [9], the viability at 48 h, 100 µM turned out to be 0.05%. Also, in data set [4], the “inhibition (INH)” value worked out at 81%.
With `CCCCNC(=O)CC1c2cccc(O)c2C(=O)c2c(O)cccc21`, the viability at 48 h, 1 µM in [5] was 80.9%. Also, the Activity result is “Non-toxic” in the data set on Rattus norvegicus [1], “Active” in data set [2] and 31% in [3]. In the data set with Rattus norvegicus [11], the inhibition in vivo at 10 µmol/kg is 35%. The IC50 in data set [10] (read-out: IC50) was 10 µM; in the data set with HaCaT, 5.4 µM. Moreover, the viability at 48 h, 0.01 µM in [6] worked out at 87.2%. The viability at 48 h, 0.1 µM in data set [7] worked out at 83.7%. The Rm in data set [12] is recorded as 0.05. Also, the viability at 48 h, 10 µM in [8] is 24.4%. Also, the viability at 48 h, 100 µM in data set [9] was found to be 13.7%. Moreover, the “inhibition (INH)” value in data set [4] came to 59%.
For the compound `COc1ccc(C(NC(C)=O)c2ccc(OC)cc2)cc1`, the results for the Activity result (in the data set with Rattus norvegicus [1]; in [2]; in data set [3]) were “Non-toxic”, “Not Active” and “Not Active”, respectively. Also, the inhibition in vivo at 10 µmol/kg in the data set with Rattus norvegicus [11] was 45%. Besides, the IC50 in data set [10] (read-out: IC50) came to 100 µM. Moreover, the “inhibition (INH)” value in [4] worked out at 94%.
Consider `CCOC(=O)CC1c2cccc(O)c2C(=O)c2c(O)cccc21`, for which the viability at 48 h, 1 µM in data set [5] came out at 49.9%. Moreover, the figures for the Activity entry (in the data set with Rattus norvegicus [1]; in data set [2]; in [3]) were “Non-toxic”, “Active” and 31%, respectively. Further, the IC50 in data set [10] (read-out: IC50) was found to be 44.5 µM; in the data set with HaCaT, 0.357 µM. For the same compound, the viability at 48 h, 0.01 µM in [6] amounted to 47%. The viability at 48 h, 0.1 µM in [7] came to 53.4%. Moreover, in data set [12], the Rm worked out at 0.63. Moreover, the viability at 48 h, 10 µM in data set [8] turned out to be 28.8%. The viability at 48 h, 100 µM in data set [9] came to 6.5%. Further, the “inhibition (INH)” value in [4] was 14%.
Consider `Cc1c(C)c2c(c(C)c1O)CCC(C)(C(=O)O)O2` (centres undefined) [TROLOX], for which, in [4], the “inhibition (INH)” value came out at 63%.
On to `NCCCCNCCCN` [SPERMIDINE], for which the IC50 result in data set [10] is “Not Active”. The Activity entry in [2] and in [3] was “Not Active” each time. Moreover, the “inhibition (INH)” value in [4] is on record as “Not Active”.
Turning to `O=C(CC1c2cccc(O)c2C(=O)c2c(O)cccc21)NCc1ccccc1`, the Activity result with Rattus norvegicus [1] was “Non-toxic”; in data set [2] it was “Active”; in data set [3], 20%. Further, the inhibition in vivo at 10 µmol/kg in the data set with Rattus norvegicus [11] came to 35%. The IC50 in [10] (read-out: IC50) came out at 7.9 µM. The Rm in data set [12] stood at 0.66. Moreover, the “inhibition (INH)” value in data set [4] worked out at 66%.
`NCCCNCCCCNCCCNC(=O)CC1c2cccc(O)c2C(=O)c2c(O)cccc21.O=C(O)C(F)(F)F.O=C(O)C(F)(F)F.O=C(O)C(F)(F)F`: the Activity result in the data set on Rattus norvegicus [1] is on record as “Non-toxic”; in data set [2], “Not Active”; in data set [3], 93%. Also, the IC50 entry in [10] is “Not Active”. Besides, in [4], the “inhibition (INH)” value came to 87%.
For `NCCCNCCCCNCCCN` [SPERMINE], the 50% inhibitory concentration (IC50) entry in [10] is recorded as “Not Active”. For the same compound, the values for the Activity entry in data set [2] and in [3] were “Not Active” and 4%, respectively. The “inhibition (INH)” value in data set [4] is “Not Active”.
Turning to `O=C(O)CC1c2cccc(O)c2C(=O)c2c(O)cccc21`, the viability at 48 h, 1 µM in data set [5] turned out to be 60.4%. For the same compound, the Activity result with Rattus norvegicus [1] is listed as “Non-toxic”; in data set [2] it was “Active”; in data set [3] it was 25%. Moreover, the inhibition in vivo at 10 µmol/kg with Rattus norvegicus [11] was determined as 13%. The IC50 in data set [10] (read-out: IC50) was determined as 50 µM; in the data set on HaCaT it was 1.9 µM. Besides, the viability at 48 h, 0.01 µM in [6] was found to be 87.1%. The viability at 48 h, 0.1 µM in [7] turned out to be 58%. The viability at 48 h, 10 µM in [8] turned out to be 42%. Also, the viability at 48 h, 100 µM in [9] was 41.2%. For the same compound, the “inhibition (INH)” value in [4] is 20%.
With `CC(Cc1ccc(O)c(O)c1)C(C)Cc1ccc(O)c(O)c1` (centres undefined) [NORDIHYDROGUAIARETIC ACID], the Activity result was “Not Active” in data set [2] and 81% in [3].
For the compound `COc1ccc2c(c1)c(CC(=O)O)c(C)n2C(=O)c1ccc(Cl)cc1` [INDOMETHACIN], the inhibition in vivo at 10 µmol/kg in the data set with Rattus norvegicus [11] was 47%.
